Results as given in US4010264A, “7-[3-Substituted isoxazol-5-yl]-acetamido-cephalosporanic acids and their anti-bacterial use” (Koninklijke Nederlandsche Gist-en Spiritusfabriek N.V., priority 1970, dated 1977).
Structures can show the parent of a compound that is named as a salt.

Experiments:
[1] = tested on: Bacillus subtilis ATCC 6633; assay: MIC, agar serial dilution test; assay type: cell-based; details: ATCC6633; Bacillus subtilis ATCC 6633; 24 hours at 37° C; read-out: MIC
[2] = tested on: Staphylococcus aureus A55; assay: MIC, agar serial dilution test; assay type: cell-based; details: Staphylococcus aureus A55; 24 hours at 37° C; read-out: MIC
[3] = tested on: Staphylococcus aureus A321; assay: MIC, agar serial dilution test; assay type: cell-based; details: Staphylococcus aureus A321; 24 hours at 37° C; read-out: MIC
[4] = tested on: Streptococcus haemolyticus A266; assay: MIC, agar serial dilution test; assay type: cell-based; details: Streptococcus haemolyticus A266; 24 hours at 37° C; read-out: MIC
[5] = tested on: Streptococcus faecalis L 80; assay: MIC, agar serial dilution test; assay type: cell-based; details: Enterococcus faecalis, L80; Streptococcus faecalis L 80; 24 hours at 37° C; read-out: MIC
[6] = tested on: Diplococcus pneumoniae L 54; assay: MIC, agar serial dilution test; assay type: cell-based; details: Streptococcus pneumoniae, L54; Diplococcus pneumoniae L 54; 24 hours at 37° C; read-out: MIC
Brucella melitensis A488 = assay: microbe, parasite or virus in culture; assay type: cell-based; details: A488, 24 h
[7] = tested on: Pasteurella multocida A723; assay: MIC, agar serial dilution test; assay type: cell-based; details: Pasteurella multocida A723; 24 hours at 37° C; read-out: MIC
[8] = tested on: Klebsiella pneumoniae A809; assay: MIC, agar serial dilution test; assay type: cell-based; details: Klebsiella pneumoniae A809; 24 hours at 37° C; read-out: MIC
[9] = tested on: Staphylococcus aureus A 321; assay: prophylactic experiment against an infection in mice; assay type: in vivo, female mice (Swiss)
Excerpt: B. Activity of the compound of example III in a prophylactic experiment against an infection with Staphylococcus aureus A 321. […] Administered doses: Tested compound dissolved in physiological NaCl-solution. Group A: one dose administered four hours before the intraperitoneal infection Group B: one dose administered two hours before the intraperitoneal infection.

in vivo = assay: in vivo; parameters: species or system rabbits; details: rabbit, im, 50 mg/kg
Excerpt: C. Serum levels of the tested compound and dicloxacillin.

binding to serum protein = assay type: in vitro ADME; details: serum protein; read-out: extent bound to serum protein
serum protein = assay: binding to serum protein; assay type: in vitro ADME; details: 50 mg/kg intramuscular, rabbits
test organisms = assay: M.I.C. comparison with dicloxacillin; assay type: cell-based; details: compared with dicloxacillin
Description: Peak blood levels of the two drugs were reached after 1 hour with the tested compound giving levels of 5.4 μg/ml and dicloxacillin 27 μg/ml. After 4 hours, these levels were 2.2 μg/ml and 7.1 μg/ml respectively. […] However, the M.I.C. values for the tested compound were approximately 5 - 10 times less so that the overall result was better and this was reflected in the in vivo results.

[10] = tested on: Staphylococcus aureus A355 (penicillinase-producing); assay: MIC, agar serial dilution test; details: 24 h
[11] = tested on: Staphylococcus aureus L160a (penicillinase-producing); assay: MIC, agar serial dilution test; details: 24 h
[12] = tested on: Staphylococcus aureus A 321; assay: in vivo infection test in mice; details: A321, in Mus musculus
[13] = tested on: Staphylococcus aureus A 2001; assay: in vivo infection test in mice; details: A2001, in Mus musculus
[14] = tested on: Staphylococcus aureus A 2000; assay: in vivo infection test in mice; details: A2000, in Mus musculus
[15] = tested on: Salmonella typhi murium R 172; assay: in vivo infection test in mice; details: Salmonella enterica, in Mus musculus, ip
[16] = tested on: Pseudomonas aeruginosa A 1058; assay: in vivo infection test in mice; details: A1058, in Mus musculus, ip
Proteus mirabilis O.T. = assay: in vivo infection test in mice; details: in Mus musculus, ip

For `CC(=O)OCC1=C(C(=O)O)N2C(=O)C(NC(=O)Cc3cc(-c4c(Cl)cccc4Cl)no3)C2SC1` (stereo not shown) [Example III, Sodium salt of 7-{[3-(2,6-dichlorophenyl)-isoxazol-5-yl]acetamido}cephalosporanic acid], the MIC [1] was ~0.007 µg/mL, the MIC [2] was 0.015 µg/mL and the MIC [3] was ~0.007 µg/mL. For the same molecule, the MIC [4] was ~0.007 µg/mL, the MIC [5] was 0.5 µg/mL and the MIC [6] was 0.007 µg/mL. The MIC (Brucella melitensis A488) was 1 µg/mL, the MIC [7] was 1 µg/mL and the MIC [8] was 12.5 µg/mL. For the same molecule, the ED50 ([9]; A321, ip, 2 h, Group B: one dose two hours before i.p. infection, administration i.p.) was < 21.5 mg/kg, the ED50 ([9]; A321, ip, 4 h, Group A: one dose four hours before i.p. infection, administration i.p.) was 21.5 to 46.5 mg/kg and the ED50 ([9]; A321, po, 2 h, Group B: one dose two hours before i.p. infection, administration per os) was < 21.5 mg/kg. It also gave an ED50 ([9]; A321, po, 4 h, Group A: one dose four hours before i.p. infection, administration per os) of ~465 mg/kg, a Cmax at 1 h (in vivo) of 5400 ng/mL and a Tmax (in vivo) of 1 h. For the same molecule, the concentration at 1 h (in vivo) was 5400 ng/mL, the concentration at 4 h (in vivo) was 2200 ng/mL and the blood level (in vivo; 4 h) was 2200 ng/mL. For the same molecule, the fraction bound to serum protein (binding to serum protein) was ~0.5, the “amount of free drug in the serum compared with dicloxacillin” value (serum protein) was “of the same order” and the “M.I.C. values, times less than dicloxacillin” value (test organisms) was 5 - 10 times. It also gave an MIC [10] of 0.12 µg/mL, an MIC [11] of 0.06 µg/mL and an ED50 ([12]; po) of 61.9 mg/kg. For the same molecule, the ED50 ([12]; sc) was 5.11 mg/kg, the ED50 ([13]; ip) was 2.87 mg/kg and the ED50 ([13]; po) was ~200 mg/kg. The ED50 ([13]; sc) was > 215 mg/kg, the ED50 ([14]; ip) was 1.78 mg/kg and the ED50 ([14]; po) was > 215 mg/kg. For the same molecule, the ED50 ([14]; sc) was 75 mg/kg, the ED50 [15] was ~200 mg/kg and the ED50 [16] was > 215 mg/kg. It also gave an ED50 (Proteus mirabilis O.T.) of ~200 mg/kg.
